Measured values published in ChEMBL document CHEMBL5154930, “Design, Synthesis, and Biological Evaluations of DOT1L Peptide Mimetics Targeting the Protein-Protein Interactions between DOT1L and MLL-AF9/MLL-ENL” (J Med Chem, 2022).
Activity calls are given as the source filed them. The calls are words filed in the database; no cut-off is given here.

What was measured:
[1] = tested on: RS4-11; assay: Anticancer activity against human RS4-11 cells assessed as inhibition of cell growth treated for 8 days measured by CCK-8 kit method; assay type: functional, cell-based; conditions: RS4-11, 192 h
[2] = tested on: MOLM-13; assay: Down regulation of […] gene in human MOLM-13 cells by RNA-sequencing analysis; assay type: functional, cell-based
[3] = tested on: MOLM-13; assay: Inhibition of methylation of H3K79 in human MOLM-13 cells assessed as inhibition of methylation at HOXA1 gene cluster by chromatin immunoprecipitation assay; assay type: functional, cell-based
[4] = tested on: MOLM-13; assay: Inhibition of MEIS1 gene expression in human MOLM-13 cells measured at 0.125 to 0.5 uM after 6 days by RT-qPCR analysis; assay type: functional, cell-based; conditions: dose 0.125-0.5 µM, time 6.0 day
[5] = tested on: MOLM-13; assay: Inhibition of HOXA9 gene expression in human MOLM-13 cells at 0.25 uM by RT-qPCR analysis; assay type: functional, cell-based; conditions: time 2-6 day, TDE = time-dependent effect
[6] = tested on: MOLM-13; assay: cells; conditions: Homo sapiens, MOLM-13, 144 h
Description: Anticancer activity against human MOLM-13 cells harbouring MLL-AF9 assessed as inhibition of cell growth treated for 6 days measured by CCK-8 kit method

[7] = tested on: MOLM-13; assay: Down regulation of SSBP2 gene in human MOLM-13 cells by RNA-sequencing analysis; assay type: functional, cell-based
[8] = tested on: MOLM-13; assay: Inhibition of methylation of H3K79 in human MOLM-13 cells assessed as inhibition of methylation at HOXA7 gene cluster by chromatin immunoprecipitation assay; assay type: functional, cell-based
[9] = tested on: MOLM-13; assay: cells; conditions: Homo sapiens, MOLM-13, 96 h
Description: Anticancer activity against human MOLM-13 cells harbouring MLL-AF9 assessed as inhibition of cell growth treated for 4 days measured by CCK-8 kit method

[10] = tested on: MV4-11; assay: Anticancer activity against human MV4-11 cells assessed as inhibition of cell growth treated for 8 days measured by CCK-8 kit method; assay type: functional, cell-based; conditions: MV4-11, 192 h
[11] = tested on: MOLM-13; assay: Down regulation of CNOT6L gene in human MOLM-13 cells by RNA-sequencing analysis; assay type: functional, cell-based
[12] = tested on: MOLM-13; assay: Inhibition of methylation of H3K79 in human MOLM-13 cells assessed as inhibition of methylation at HOXA13 gene cluster by chromatin immunoprecipitation assay; assay type: functional, cell-based
[13] = tested on: MOLM-13; assay: Inhibition of HOXA9 gene expression in human MOLM-13 cells measured at 0.125 to 0.5 uM after 6 days by RT-qPCR analysis; assay type: functional, cell-based; conditions: dose 0.125-0.5 µM, time 6.0 day
[14] = tested on: MOLM-13; assay: Down regulation of ARID2 gene in human MOLM-13 cells by RNA-sequencing analysis; assay type: functional, cell-based
[15] = tested on: MOLM-13; assay: Down regulation of HOXA11 gene in human MOLM-13 cells by RNA-sequencing analysis; assay type: functional, cell-based
[16] = tested on: MOLM-13; assay: Down regulation of HOXA5 gene in human MOLM-13 cells by RNA-sequencing analysis; assay type: functional, cell-based
[17] = tested on: MOLM-13; assay: Down regulation of SKP2 gene in human MOLM-13 cells by RNA-sequencing analysis; assay type: functional, cell-based
[18] = tested on: MOLM-13; assay: Inhibition of methylation of H3K79 in human MOLM-13 cells assessed as inhibition of methylation at MEIS1 gene cluster by chromatin immunoprecipitation assay; assay type: functional, cell-based
[19] = tested on: MOLM-13; assay: Down regulation of GBE1 gene in human MOLM-13 cells by RNA-sequencing analysis; assay type: functional, cell-based
[20] = tested on: MOLM-13; assay: Down regulation of HOXA9 gene in human MOLM-13 cells by RNA-sequencing analysis; assay type: functional, cell-based
[21] = tested on: MOLM-13; assay: cells; conditions: Homo sapiens, MOLM-13, 120 h
Description: Anticancer activity against human MOLM-13 cells harbouring MLL-AF9 assessed as inhibition of cell growth treated for 5 days measured by CCK-8 kit method

[22] = tested on: MOLM-13; assay: Inhibition of methylation of H3K79 in human MOLM-13 cells assessed as inhibition of methylation at MEIS1-AS3 gene cluster by chromatin immunoprecipitation assay; assay type: functional, cell-based
[23] = tested on: MOLM-13; assay: Down regulation of MEIS1 gene in human MOLM-13 cells by RNA-sequencing analysis; assay type: functional, cell-based
[24] = tested on: MOLM-13; assay: Down regulation of MCM2 gene in human MOLM-13 cells by RNA-sequencing analysis; assay type: functional, cell-based
[25] = tested on: MOLM-13; assay: Inhibition of methylation of H3K79 in human MOLM-13 cells assessed as inhibition of methylation at HOXA10 gene cluster by chromatin immunoprecipitation assay; assay type: functional, cell-based
[26] = tested on: MOLM-13; assay: Disruption of AF9-mediated DOT1L recruitment in human […] cells assessed as decrease in global H3K79 methylation level at 0.125 uM measured after 8 days by Western blotting analysis; assay type: cell-based; conditions: time 8.0 day
[27] = tested on: MOLM-13; assay: Down regulation of RUNX1 gene in human MOLM-13 cells by RNA-sequencing analysis; assay type: functional, cell-based
[28] = tested on: MOLM-13; assay: Down regulation of GATA2 gene in human MOLM-13 cells by RNA-sequencing analysis; assay type: functional, cell-based

IC50 [1]: 70 nM | IC50 [6]: 73 nM | IC50 [9]: 227 nM | IC50 [10]: 50 nM | IC50 [21]: 97 nM
SMILES: CC(C)N(C[C@H]1O[C@@H](n2cnc3c(N)ncnc32)[C@H](O)[C@@H]1O)[C@H]1C[C@@H](CCc2nc3cc(C(C)(C)C)ccc3[nH]2)C1 [PINOMETOSTAT]
Activity [2]: Active | inhibition [3]: Active | inhibition [4]: Active | inhibition [5]: Tde | Activity [7]: Active | inhibition [8]: Active | Activity [11]: Active | inhibition [12]: Active | inhibition [13]: Active | Activity [14]: Active | Activity [15]: Active | Activity [16]: Active | Activity [17]: Active | inhibition [18]: Active | Activity [19]: Active | Activity [20]: Active | inhibition [22]: Active | Activity [23]: Active | Activity [24]: Active | inhibition [25]: Active | inhibition [26]: 100% | Activity [27]: Active | Activity [28]: Active
